Literature values, collected in patent US8785634B2, “Spiropiperidine prolylcarboxypeptidase inhibitors” (Merck Sharp & Dohme Corp, priority 2010, dated 2014).

How the values were obtained:
[1] = in vivo
rats = details: intracerebroventricular
[2] = tested on: obese, leptin deficient mice; details: systemic administration

Molecule | weight loss, of body weight, drug compared to placebo [1] | overnight food intake (rats) | overnight food intake [2]
CCCCCCCCCCC[C@@H](C[C@@H]1OC(=O)[C@H]1CCCCCC)OC(=O)[C@H](CC(C)C)NC=O [orlistat] | 5%-10% |  | 
t-butyl carbamate-prolyl prolinal [BPP] |  | suppression of overnight food intake | suppression of overnight food intake
CCN[C@@H](C)Cc1cccc(C(F)(F)F)c1 [dexfenfluramine] | 5%-10% |  | 
CC(C)(N)Cc1ccccc1 [phentermine] | 5%-10% |  | 
CC(C)CC(N(C)C)C1(c2ccc(Cl)cc2)CCC1 (stereo not drawn) [sibutramine] | 5%-10% |  | 
